This note sets out measurements from patent US20150328249A1, “MODULATION OF MYOFIBER REPAIR BY ANTI-MYOSTATIN STRATEGIES AND/OR PPAR GAMMA LIGANDS, ALONE OR IN COMBINATION WITH STEM CELLS, FOR THE THERAPY OF CRITICAL LIMB ISCHEMIA AND OTHER ISCHEMIC PROCESSES AFFECTING THE SKELETAL MUSCLE” (LOS ANGELES BIOMEDICAL RESEARCH INSTITUTE AT HARBOR-UCLA …, priority 2012, published 2015).

One series has as its system db/db diabetic mice. Description: CLI induced by ULFA in db/db diabetic mice, treated with MDSC and/or molsidomine. Type of series: in vivo. To be noted: 3 weeks. As to the method:
CLI was induced by ULFA in db/db diabetic mice and treated as follows (n=8/group), for studying the effect of a long-acting NO donor, molsidomine: 1) Untreated (UT): vehicle; 2) MDSC (SC): MDSC into gastrocnemius; 3) MDSC-molsidomine (SC+Mol): as #2, and IP molsidomine (5 mg/kg/day); 4) Molsidomine (Mol) as in #3, no MDSC. Non-diabetic non-ULFA untreated (ND-UT) mice were controls.
At 3 weeks after initiating treatment, mortality, leg preservation, and limb loss/motion/ischemia were determined. Stem cell, myogenic, angiogenic, lipofibrosis, and neurogenesis markers were assayed in muscle tissue by quantitative histochemistry and immunohisto-chemistry and western blot.

The subject of series [1] is rat models for insulin resistance and T2DM. Description: Low oral dose pioglitazone in rat models for insulin resistance and T2DM. The format is in vivo.

With `CCOC(=O)[N-]c1cn(N2CCOCC2)n[o+]1` [molsidomine], the “follistatin expression in the skeletal muscle” value in the series on db/db diabetic mice was “decrease”. For the same compound, in the series on db/db diabetic mice (gastrocnemius of ischemic leg, quantitative western blot), the “stem cell number, expression of stem cell marker nuclear Oct 4a in the skeletal muscle” value is reported as “reduced this effect”. The “number of central nuclei (early stage of myofiber repair)” value with db/db diabetic mice (hematoxylin-eosin histochemistry) is given as “slightly inhibitory”. In addition, in the series with db/db diabetic mice (quantitative histochemistry), the “fat infiltration in the skeletal muscle (Oil Red O)” value is listed as “did not reduce” and the “fibrosis, collagen deposition in the skeletal muscle (Masson trichrome)” value is “did not exert this noxious effect”. Also, in the series with db/db diabetic mice (quantitative western blot), the “vascular endothelial growth factor (VEGF) expression in the skeletal muscle (angiogenesis)” value is given as “also angiogenic”; the “vascular endothelium, CD-31 expression in the skeletal muscle” value is given as “increase”; the “vascular endothelium, von Willebrandt factor expression in the skeletal muscle” value is recorded as “increase”; the “vascular smooth muscle marker calponin in the skeletal muscle” value is listed as “abolished the effect”.

On to `CCc1ccc(CCOc2ccc(CC3SC(=O)NC3=O)cc2)nc1` (stereo not drawn) [pioglitazone], for which the side effects entry in series [1] (glycemia-normalizing dose of 12 mg/kg/day) was “obesity and fat infiltration in the tissues”. Besides, in series [1] (low oral dose 0.6 mg/kg/day), the body weight result is recorded as “does not exert glycemic control or increase body weight” and the glycemia lay in the range of 250 to 300 mg/dL.
